Measured values from US9822414B2, “In vitro method for predicting in vivo genotoxicity of chemical compounds” (priority 2011, dated 2017).
Values joined by “and” are separate entries in the source; they are usually repeats but may differ in a detail not shown here. Equal entries are not always repeated. “Also recorded” adds a separate entry of the source. Where two headings read alike, the source gives them in different places.

What was measured:
PWWP2B = assay: Gene expression of PWWP2B in HepG2 cells exposed to compound (microarray, log2 treatment:control ratio); type: cell-based, human
rodents = conditions: cited from earlier work
LOC100505880 = assay: Gene expression of LOC100131914/LOC100505880 in HepG2 cells exposed to compound (microarray, log2 treatment:control ratio); type: cell-based, human
HepG2 cell [1] = tested on: HepG2 cell
NR0B2 = assay: Gene expression of NR0B2 in HepG2 cells exposed to compound (microarray, log2 treatment:control ratio); type: cell-based, human
[2] = tested on: conventional in vitro genotoxicity assays; conditions: cited from earlier work
Salmonella typhimurium = conditions: cited from earlier work
HepG2 cell [3] = assay: Class prediction of in vivo genotoxicity by the method of the invention (Ames stratification plus three-gene expression in HepG2); conditions: for Prediction (class prediction results using the method of the invention): 62 compounds, three replicates, HepG2 24 h
[4] = positive when at least one in vivo assay (MN, CA) positive, equivocal considered positive
[5] = HepG2, Ames positive compounds, per replicate, reference value −0.071
[6] = HepG2 cells, 24 h exposure, Ames positive compounds, one line per replicate of triplicate experiments
[7] = HepG2, Ames positive compounds, per replicate, reference value −0.054
[8] = HepG2, Ames positive compounds, per replicate, reference value −0.099
[9] = HepG2 cells, 24 h exposure, Ames positive compounds, one line per replicate of triplicate experiments, listed as Fu

Structure (SMILES) | Log2 treatment: control ratio PWWP2B (PWWP2B) | Standard (in vivo genotoxicity designation) (rodents; in vivo) | LOC100505880 above or below the reference value (LOC100505880) | At least ⅔ genes +? (HepG2 cell [1]) | Average result over three measurements (HepG2 cell [1]) | NR0B2 above or below the reference value (NR0B2) | In vitro GTX [2] | Ames (Salmonella typhimurium) | Prediction (class prediction results using the method of the invention) (HepG2 cell [3]) | PWWP2B above or below the reference value (PWWP2B) | In vivo GTX (rodents; [4]) | further results
ClCc1ccccn1 [2CMP] | −0.214 and −0.23 and −0.031 | NGTX | − (minus sign indicates a value below the reference value) | NGTX | NGTX | − (minus sign indicates a value below the reference value) | + | + | NGTX |  |  | 
CC(=O)Nc1cccc2c1-c1ccccc1C2 [4AAF] |  | NGTX | − (minus sign indicates a value below the reference value) |  | NGTX |  | + | + | NGTX+ |  |  | Log2 treatment: control ratio LOC100505880 (LOC100505880): −0.217 and −0.295 and −0.101; Log2 treatment: control ratio NR0B2 (NR0B2): −0.04 and −0.278 and −0.088
COc1cc2c(c3oc(=O)c4c(c13)CCC4=O)[C@@H]1C=CO[C@@H]1O2 [AFB1] | 0.098 and 0.275 and 0.088 | GTX | + (Plus sign indicates a value above the reference value) | GTX | GTX | + (Plus sign indicates a value above the reference value) | + | + | GTX | + (Plus sign indicates a value above the reference value) | + | 
Cn1cnc([N+](=O)[O-])c1Sc1ncnc2nc[nH]c12 [AZA] |  | GTX |  | GTX | GTX |  | + |  |  |  |  | PWWP2B above or below the reference value (PWWP2B; [5]): + (Plus sign indicates a value above the reference value); Log2 treatment: control ratio PWWP2B (PWWP2B; [6]): 0.536 and 0.044 and −0.035; In vivo GTX (rodents; in vivo): +; LOC100505880 above or below the reference value (LOC100505880; [7]): + (Plus sign indicates a value above the reference value); Log2 treatment: control ratio LOC100505880 (LOC100505880; [6]): 1.541 and 0.022 and 1.33; Prediction (class prediction results using the method of the invention) (HepG2 cell [1]): GTX; NR0B2 above or below the reference value (NR0B2; [8]): + (Plus sign indicates a value above the reference value); Log2 treatment: control ratio NR0B2 (NR0B2; [6]): 1.473 and 0.232 and 0.893; Ames (Salmonella typhimurium; Ames results based on NTP data): +
COc1ccc(N)cc1 [Anis] | 0.013 and 0.076 and 0.253 | NGTX | + (Plus sign indicates a value above the reference value) | GTX | GTX | + (Plus sign indicates a value above the reference value) | + | + | GTX | + (Plus sign indicates a value above the reference value) |  | Results in the conventional in vitro genotoxicity assays ([2]; see Table 5): positive results; Classification of NGTX compounds by the method of the invention (false positives) (HepG2 cell [3]; in vivo NGTX compounds): misclassification
O=C(O)CCCc1ccc(N(CCCl)CCCl)cc1 [Cb] |  | GTX | + (Plus sign indicates a value above the reference value) | GTX | GTX | + (Plus sign indicates a value above the reference value) | + | + | GTX |  | + | 
Cc1c2ccccc2c(C)c2c1ccc1ccccc12 [DMBA] | −0.155 and 0.088 and −0.102 | GTX |  |  | GTX |  | + | + | GTX+ |  | + | Log2 treatment: control ratio LOC100505880 (LOC100505880): 0.08 and −0.059 and −0.025; Log2 treatment: control ratio NR0B2 (NR0B2): 0.064 and −0.116 and −0.076
CCN(N=O)C(N)=O [ENU] | 0.01 and 0.06 and 0.11 | GTX |  | GTX | GTX | + (Plus sign indicates a value above the reference value) | + | + | GTX | + (Plus sign indicates a value above the reference value) | + | 
O=c1[nH]cc(F)c(=O)[nH]1 [FU] |  | GTX |  |  | NGTX |  | + |  |  |  |  | PWWP2B above or below the reference value (PWWP2B; [5]): + (Plus sign indicates a value above the reference value); Log2 treatment: control ratio PWWP2B (PWWP2B; [6]): 0.256 and 0.175; Log2 treatment: control ratio PWWP2B (PWWP2B; [9]): 0.008; In vivo GTX (rodents; in vivo): +; LOC100505880 above or below the reference value (LOC100505880; [7]): + (Plus sign indicates a value above the reference value); also recorded: − (minus sign indicates a value below the reference value); LOC100505880 above or below the reference value (LOC100505880; HepG2, Ames positive compounds, per replicate, reference value −0.054, listed as Fu): − (minus sign indicates a value below the reference value); Log2 treatment: control ratio LOC100505880 (LOC100505880; [6]): 0.583 and −0.067; Log2 treatment: control ratio LOC100505880 (LOC100505880; [9]): −0.218; Prediction (class prediction results using the method of the invention) (HepG2 cell [1]): NGTX+; NR0B2 above or below the reference value (NR0B2; [8]): + (Plus sign indicates a value above the reference value); also recorded: − (minus sign indicates a value below the reference value); NR0B2 above or below the reference value (NR0B2; HepG2, Ames positive compounds, per replicate, reference value −0.099, listed as Fu): − (minus sign indicates a value below the reference value); Log2 treatment: control ratio NR0B2 (NR0B2; [6]): 0.781 and −0.197; Log2 treatment: control ratio NR0B2 (NR0B2; [9]): −0.457; Ames (Salmonella typhimurium; Ames results based on NTP data): +
Nc1ccc(Cc2ccc(N)c(Cl)c2)cc1Cl [MOCA] |  | GTX |  |  |  | + (Plus sign indicates a value above the reference value) | + |  |  | + (Plus sign indicates a value above the reference value) | + | 
O=c1c(O)c(-c2ccc(O)c(O)c2)oc2cc(O)cc(O)c12 [Que] |  | NGTX |  | NGTX | NGTX |  | + |  |  |  |  | PWWP2B above or below the reference value (PWWP2B; [5]): − (minus sign indicates a value below the reference value); Log2 treatment: control ratio PWWP2B (PWWP2B; [6]): −0.206 and −0.437 and −0.113; In vivo GTX (rodents; in vivo): −; Log2 treatment: control ratio LOC100505880 (LOC100505880; [6]): 0.062 and −0.337 and −0.727; Prediction (class prediction results using the method of the invention) (HepG2 cell [1]): NGTX; NR0B2 above or below the reference value (NR0B2; [8]): − (minus sign indicates a value below the reference value); Log2 treatment: control ratio NR0B2 (NR0B2; [6]): −0.635 and −0.69 and −3.709; Ames (Salmonella typhimurium; Ames results based on NTP data): +
[NH2][Pt]([NH2])([Cl])[Cl] [cisPt] | 0.095 and −0.147 and −0.18 | GTX | + (Plus sign indicates a value above the reference value) | GTX | GTX | + (Plus sign indicates a value above the reference value) | + | + | GTX |  | + | 
COc1ccc(C)cc1N [pCres] |  | GTX |  | GTX | GTX | + (Plus sign indicates a value above the reference value) | + | + | GTX | + (Plus sign indicates a value above the reference value) | + | 
